Measurements published in US7226761B2, “Manufacture of five-carbon sugars and sugar alcohols” (Danisco Sweeteners Oy, priority 1992, dated 2007).

How the values were obtained:
[1] = test system: TKL1 deficient strain H1764; test: Growth of TKL1 deficient strain on galactose plates containing D-xylulose; format: cell-based, Saccharomyces cerevisiae; settings: 2% galactose plates
Description: The genomic library of Z. rouxii was transformed into the TKL1 deficient strain of Saccharomyces cerevisiae (H1764, see example 12) and 10,000 independent clones were obtained. We have observed that the TKL1 deficient strain H1764 is unable to grow on 2% galactose plates containing 0.3% or higher concentrations of D-xylulose (probably due to toxic concentrations of 5-carbon sugar phosphates accumulating). The independent clones were plated with 0.5% D-xylulose (synthetic complete medium with 2% galactose, 0.5% xylulose and 3% xylose lacking leucine for selection of the library plasmid) and screened for complementation of growth on these plates.

[2] = test system: strains H1915 and H1916; settings: approximately 0.5 mM H2O2, 1.5 h; both strains
Description: Strains H1915 and H1916 were cultivated to logarithmic growth phase. The cells were collected and suspended into synthetic complete medium lacking histidine and uracil to an average density of OD600 20. Glucose was added to a final concentration of 20 g/l and a sample was taken immediately. The cells were incubated in a 30° C. shaker (250 rpm) for 2.5 h and the first sample was taken. Then H2O2 was added to a concentration of approximately 0.5 mM and incubation continued for an additional 1.5 h, when the second sample was taken. The OD600 was measured, cells were removed by centrifugation, and the growth medium samples were analyzed by HPLC (Waters device, Aminex HPX-87H Ion Exclusion Column, see example 17).

| SMILES | D-xylulose concentration at which the strain is unable to grow [1] [%] | increase of total polyol and pentose production [2] [fold] |
| --- | --- | --- |
| O=C(CO)[C@@H](O)[C@H](O)CO [D-xylulose] | ≥ 0.3 | – |
| OO [hydrogen peroxide] | – | 2 |
